Where “and” joins values, the source holds several entries; their conditions need not be identical. Equal values may be shown once. Read-outs that look alike come from different tables or passages of the source.
Tested on: AsPC-1 cells
Assay: Cell proliferation assay, chemodrug + ATR inhibitor (Incucyte confluence, 72 h);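 note: underlying read-out for every value is AsPC-1 confluence after 72 h incubation at 37 °C and 5% CO2, divided by that well's starting confluence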
Conditions: for Curve bottom / Curve slope / Curve top: fitted dose-response curve; for Curve bottom / Curve top: relative response; for Raw data (confluence at 72 h/confluence at 0 h): Berzosertib experiment; for EC50: Homo sapiens
[1] = AsPC1, Experiment GEM+ATRi_dose1
[2] = AsPC1, Experiment GEM+ATRi_dose2
[3] = AsPC1, Experiment GEM+ATRi_dose3

Method: Cells were seeded at 5000 cells/well into 96-well flat bottom plates (Eppendorf) and allowed to attach overnight. […] Cells were incubated for 72 h at 37 °C and 5% CO2. Cell confluence readouts at 72 h were either normalized to their initial confluence using the Incucyte software (AsPC-1) or used without prior normalization (all others). […] Each experiment was performed in triplicates, the data was plotted as mean ± standard deviation (s.d.).

In the case of `CNCc1ccc(-c2cc(-c3nc(-c4ccc(S(=O)(=O)C(C)C)cc4)cnc3N)on2)cc1` [Berzosertib], the Curve bottom (AsPC1, Experiment ATRi (ATR inhibitor alone)) is reported as 1.08 and 1.02 and 1.03, the Curve slope [1] is reported as 1.49 and 1.39 and 2.10 and the Curve bottom [1] is reported as 1.02 and 0.99 and 0.96. The Curve top [1] was 0.52 and 0.41 and 0.43, the Curve bottom [2] was 1.02 and 0.89 and 0.87 and the Curve top [2] was 0.47 and 0.41. For the same molecule, the Curve slope [3] was 1.48 and 2.60 and 1.95, the Curve bottom [3] was 1.02 and 0.71 and 0.76 and the Curve top [3] was 0.44 and 0.38 and 0.37. It also gave a Response (AsPC1, GEM 100 nM + ATRi 30 nM) of 1.96, a Response (AsPC1, GEM 300 nM + ATRi 30 nM) of 1.76 and a Response (AsPC1, GEM 1000 nM + ATRi 30 nM) of 1.64. For the same molecule, the Response (AsPC1, GEM 3000 nM + ATRi 30 nM) was 1.69, the “Raw data (confluence at 72 h/confluence at 0 h)” value (“Raw data” for short) (replicate R2, titrated drug dose 100 nM) was 1.63 and the “Raw data” value (replicate R2, titrated drug dose 300 nM) was 3.32. For the same molecule, the “Raw data” value (replicate R2, titrated drug dose 1000 nM) was 1.81, the “Raw data” value (replicate R2, titrated drug dose 3000 nM) was 0.95 and the “Raw data” value (replicate R2, titrated drug dose 10000 nM) was 1.02. The “Raw data” value (replicate R3, titrated drug dose 3 nM) was 3.53, the “Raw data” value (replicate R3, titrated drug dose 10 nM) was 3.58 and the “Raw data” value (replicate R3, titrated drug dose 30 nM) was 3.44. The “Raw data” value (replicate R3, titrated drug dose 100 nM) was 1.82, the “Raw data” value (replicate R3, titrated drug dose 300 nM) was 3.31 and the “Raw data” value (replicate R3, titrated drug dose 1000 nM) was 1.82. The “Raw data” value (replicate R3, titrated drug dose 3000 nM) was 0.98, the “Raw data” value (replicate R3, titrated drug dose 10000 nM) was 1.08 and the “Raw data” value (replicate R1, titrated drug dose 3 nM) was 3.58. For the same molecule, the “Raw data” value (replicate R1, titrated drug dose 10 nM) was 3.42, the “Raw data” value (replicate R1, titrated drug dose 30 nM) was 3.67 and the “Raw data” value (replicate R1, titrated drug dose 100 nM) was 3.44. For the same molecule, the “Raw data” value (replicate R1, titrated drug dose 300 nM) was 3.48, the “Raw data” value (replicate R1, titrated drug dose 1000 nM) was 1.39 and the “Raw data” value (replicate R1, titrated drug dose 3000 nM) was 1.11. For the same molecule, the “Raw data” value (replicate R1, titrated drug dose 10000 nM) was 1.24, the “Raw data” value (replicate R2, titrated drug dose 3 nM) was 3.47 and the “Raw data” value (replicate R2, titrated drug dose 10 nM) was 3.62. For the same molecule, the “Raw data” value (replicate R2, titrated drug dose 30 nM) was 3.68, the Response (GEM 0 nM, ATRi 30 nM) was 3.26 and 3.50 and 3.35 and the Response (GEM 0 nM, ATRi 300 nM) was 3.38 and 2.28 and 2.67. For the same molecule, the Response (GEM 1 nM + ATRi 30 nM) was 3.40 and 3.47 and 3.32, the Response (GEM 1 nM + ATRi 100 nM) was 3.25 and 2.45 and 2.30 and the Response (GEM 1 nM + ATRi 300 nM) was 3.17 and 2.72 and 2.68. For the same molecule, the Response (GEM 3 nM + ATRi 30 nM) was 3.21 and 3.37 and 3.20, the Response (GEM 3 nM + ATRi 100 nM) was 3.16 and 3.42 and 3.23 and the Response (GEM 3 nM + ATRi 300 nM) was 3.33 and 2.50 and 2.49. The Response (GEM 10 nM + ATRi 30 nM) was 3.02 and 3.24 and 3.22, the Response (GEM 10 nM + ATRi 100 nM) was 2.95 and 3.25 and 2.97 and the Response (GEM 10 nM + ATRi 300 nM) was 2.69 and 2.35 and 2.32. The Response (GEM 30 nM + ATRi 30 nM) was 2.26 and 2.69 and 2.57, the Response (GEM 30 nM + ATRi 100 nM) was 2.27 and 2.08 and 1.96 and the Response (GEM 30 nM + ATRi 300 nM) was 2.06 and 1.65 and 1.60. The Response (GEM 100 nM + ATRi 30 nM) was 1.68, the Response (GEM 100 nM + ATRi 100 nM) was 1.81 and 1.49 and 1.48 and the Response (GEM 100 nM + ATRi 300 nM) was 1.53 and 1.40 and 1.31. The Response (GEM 300 nM + ATRi 30 nM) was 1.65 and 1.49, the Response (GEM 300 nM + ATRi 100 nM) was 1.60 and 1.52 and 1.44 and the Response (GEM 300 nM + ATRi 300 nM) was 1.48 and 1.38 and 1.24. The Response (GEM 1000 nM + ATRi 30 nM) was 1.43 and 1.48, the Response (GEM 1000 nM + ATRi 100 nM) was 1.53 and 1.41 and 1.39 and the Response (GEM 1000 nM + ATRi 300 nM) was 1.41 and 1.36 and 1.30. For the same molecule, the Response (GEM 3000 nM + ATRi 30 nM) was 1.40 and 1.48, the Response (GEM 3000 nM + ATRi 100 nM) was 1.58 and 1.38 and 1.33 and the Response (GEM 3000 nM + ATRi 300 nM) was 1.46 and 1.27. It also gave an EC50 (ASPC1, 72 h, AsPC1, Experiment ATRi (ATR inhibitor alone), single replicates R1-R3) of 647 nM, an EC50 (ASPC1, 72 h, read-out: EC50 (cell growth), ATR inhibitor as single agent) of 766 nM and an EC50 (ASPC1, 72 h, read-out: EC50 mean [nM], AsPC1, Experiment ATRi (ATR inhibitor alone), mean of replicates) of 719 nM. It also gave an EC50 (ASPC1, 72 h, read-out: pEC50, AsPC1 (converted), Experiment ATRi (ATR inhibitor alone), single replicates R1-R3) of 646 nM and an EC50 (ASPC1, read-out: EC50 mean [nM], AsPC1, Experiment ATRi (ATR inhibitor alone), mean of replicates) of 719 nM.

Reference: paper PMC11876601 (Molecular Systems Biology, 2025)
